# Patent publication US20250290915A1, “METHOD FOR PREDICTING RESPONSIVENESS TO THERAPY” (CANCERTAIN LIMITED, priority 2022, published 2025)
# What was measured:
# Type in all cases: cell-based, human
# [1] = test system: Circulating Tumour Cells (CTCs) from a patient with renal cancer; experiment: Drug response score assay on CTCs (with CD45+ cells for immunotherapy) from blood, Example 7; parameters: key to Drug response score, conc. 1 / Drug response score, conc. 2 / Drug response score, conc. 3 / Drug response score, conc. 4: normalized drug response metric per Gupta et al. 2020; conditions: for Drug response score, conc. 1: conc. 1: Pembr 20 μg/ml (CTCs + CD45+ cells), Docetax 0.02 μg/ml, Gemcit 2 μg/ml, Topo 5 μg/ml, Etop 1 μg/ml, Eribul 5 μg/ml (CTCs); for Drug response score, conc. 1 / Drug response score, conc. 2 / Drug response score, conc. 3 / Drug response score, conc. 4: t96h; for Drug response score, conc. 2: conc. 2: Pembr 40 μg/ml (CTCs + CD45+ cells), Docetax 0.2 μg/ml, Gemcit 10 μg/ml, Topo 10 μg/ml, Etop 4 μg/ml, Eribul 10 μg/ml (CTCs); for Drug response score, conc. 3: conc. 3: Pembr 100 μg/ml (CTCs + CD45+ cells), Docetax 2 μg/ml, Gemcit 20 μg/ml, Topo 50 μg/ml, Etop 20 μg/ml, Eribul 20 μg/ml (CTCs); for Drug response score, conc. 4: conc. 4: Pembr 160 μg/ml (CTCs + CD45+ cells), Docetax 10 μg/ml, Gemcit 40 μg/ml, Topo 100 μg/ml, Etop 100 μg/ml, Eribul 40 μg/ml (CTCs); for Drug sensitivity as calculated by the assay (interpretation of Drug Response Scores): Table 23
# Protocol: (§1) CD45^+ cells and circulating tumour cells (CTCs) were isolated from a blood sample provided by each subject.
# (§2) CD45 separation was performed by adding human CD45 microbeads (50 μl/ml blood), incubating for 15 minutes at 4° C. and then processing using an AutoMACS machine. This separates the blood sample into CD45^+ and CD45^−cells in 2 separate falcons. The falcon tubes are then centrifuged at 1200 rpm for 5 minutes.
# The supernatant was removed from the CD45^+falcon tube, and the cells resuspended in DMEM with 2 μl Cell Tox, 2 μl MT and 2 μl MT. 20 μl of the resuspended CD45^+ cells was then plated in each well which will contain an immunotherapy treatment.
# (§3) The supernatant was removed from the CD45^−falcon tube, and the CD45^−cells contacted with 100 μl of FcR block and 100 μl of CD326 (EpCAM) MicroBeads, followed by incubation at […] 4° C. for 30 minutes. The CD45^−cells were then processed using an AutoMACS machine to separate the EpCAM positive and negative cells into 2 separate falcon tubes. The EpCAM-cells were discarded. The supernatant was removed from the EpCAM^+ cells, and the cells resuspended in DMEM with 2 μl Cell Tox, 2 μl MT and 2 μl MT. 20 μl of the resuspended pellet was then added to all sample wells excluding a blank. After all wells are added to, a cell count was conducted on the […] to determine the number of circulating tumour cells (CTCs).
# (§4) The different cell types were each divided equally into populations, depending on the number of drugs/concentrations to be tested and plated on a cell-culture plate pre-coated with a scaffold of polycaprolactone (PCL) electrospun fibres and incubated at 37° C., 5% CO2, for 5 to (typically 10) minutes to facilitate cell attachment. After attachment, an initial imaging step was carried out using the RealTime-Glo™ MT assay from Promega (Catalogue No. G9711)) and the CellTox™ Green Cytotoxicity Assay (Promega, Catalogue No. G8741), carried out according to manufacturer's instructions. Following this initial imagining, the immunotherapeutic and/or chemotherapeutic agents were added to the cell populations as indicated below. After 10 minutes, the imagining step was repeated. The cell populations were then incubated at 37° C., 5% CO2 for 48 hours. The imaging step was then repeated. The cell populations were then re-dosed with the same immunotherapeutic and/or chemotherapeutic agents as indicated below, and incubated at 37° C., 5% CO2 for a further 48 hours. After this second 48 hour incubation, the imagining step was repeated for a final time.
# (§5) At the end of this culture period, dose response scores were calculated using a normalized drug response metric as described in Gupta et al. (Communications Biology volume 3, Article number: 42 (2020), https://doi.org/10.1038/s42003-020-0765-z). The start readout for a given immunotherapeutic or chemotherapeutic agent at a given concentration was the to readout for said immunotherapeutic or chemotherapeutic agent at a specified concentration. The end readout for a given immunotherapeutic or chemotherapeutic agent at a given concentration was the final timepoint reading (t96h) for said immunotherapeutic or chemotherapeutic agent at a specified concentration.
# (§6) The positive control start readout for a given drug/concentration was the to readout for the corresponding drug at a specified concentration. The positive control end readout for the corresponding drug at a specified concentration was the final timepoint reading (t96h) for the corresponding blank well.
# (§7) The negative control start and end readouts for a given immunotherapeutic or chemotherapeutic agent at a given concentration were the to and final timepoint reading (t96h) respectively for blank cell or blank immuno cell well respectively.
# The sensitivity or resistance of a subject's cancer to a given immunotherapeutic or chemotherapeutic agent was determined based on the calculated drug response score as shown in Table 2. […]
# [2] = test system: Circulating Tumour Cells (CTCs) from a patient with sex cord stromal tumour, ovarian tumour; experiment: Drug response score assay on CTCs from blood, Example 4; parameters: key to Drug response score, conc. 1 / Drug response score, conc. 2 / Drug response score, conc. 3 / Drug response score, conc. 4: normalized drug response metric (Gupta et al. 2020)
# Protocol: as §1, §2, §3, §4, §5, §6, §7
# (§8) The sensitivity or resistance of a subject's cancer to a given immunotherapeutic or chemotherapeutic agent was determined based on the calculated drug response score as shown in Table 2.
# Blood samples from a patient with sex cord stromal tumour, ovarian tumour (epitheliod neoplasm, stage 3 recurrence after surgery (resection) and previous chemotherapy) were received on 19 Jul. 2021 and tested using a 5 drug panel. […]
# [3] = test system: Circulating Tumour Cells (CTCs) from a patient with colon cancer (sigmoid colon cancer); experiment: Drug response score assay on CTCs from blood, Example 8; parameters: key to Drug response score, conc. 1 / Drug response score, conc. 2 / Drug response score, conc. 3 / Drug response score, conc. 4: normalized drug response metric (Gupta et al. 2020); conditions: for Drug response score, conc. 1: conc. 1 of each drug as in Table 24; for Drug response score, conc. 1 / Drug response score, conc. 2 / Drug response score, conc. 3 / Drug response score, conc. 4: CTCs, t96h; for Drug response score, conc. 2: conc. 2 of each drug as in Table 24; for Drug response score, conc. 3: conc. 3 of each drug as in Table 24; for Drug response score, conc. 4: conc. 4 of each drug as in Table 24; for Drug sensitivity as calculated by the assay (interpretation of Drug Response Scores): sigmoid colon cancer CTCs, Table 26
# Protocol: as §1, §2, §3
# as §4, with “After” for “The different cell types were each divided equally into populations, depending on the number of drugs/concentrations to be tested and plated on a cell-culture plate pre-coated with a scaffold of polycaprolactone (PCL) electrospun fibres and incubated at 37° C., 5% CO2, for 5 to (typically 10) minutes to facilitate cell attachment. After”
# as §5, §6, §7, §8
# Blood samples from a patient with colon cancer (sigmoid colon cancer) were received on 8 Mar. 2022 and tested using a 9 drug panel.
# Chemotherapeutic agents were tested as in Table 24.
# [4] = test system: Circulating Tumour Cells (CTCs, EpCam+CD45−) from a patient with stage II synovial sarcoma; experiment: Drug response score assay (RealTime-Glo MT / CellTox Green, PCL scaffold) on CTCs from blood, Example 1; parameters: key to Drug response score, conc. 1 / Drug response score, conc. 2 / Drug response score, conc. 3 / Drug response score, conc. 4: normalized drug response metric per Gupta et al. 2020; conditions: for Drug response score, conc. 1: conc. 1: Doxo 10 ng/ml, Ifos 0.125 μg/ml, Gemcit 2 μg/ml, Doce 0.02 μg/ml, Carbo 2 μg/ml, Dacarb 1.5 μg/ml, re-dosed at 48 h; for Drug response score, conc. 1 / Drug response score, conc. 2 / Drug response score, conc. 3 / Drug response score, conc. 4: CTCs, t96h; for Drug response score, conc. 2: conc. 2: Doxo 30 ng/ml, Ifos 0.25 μg/ml, Gemcit 10 μg/ml, Doce 0.2 μg/ml, Carbo 5 μg/ml, Dacarb 3 μg/ml; for Drug response score, conc. 3: conc. 3: Doxo 90 ng/ml, Ifos 5 μg/ml, Gemcit 20 μg/ml, Doce 2 μg/ml, Carbo 10 μg/ml, Dacarb 6 μg/ml; for Drug response score, conc. 4: conc. 4: Doxo 270 ng/ml, Ifos 10 μg/ml, Gemcit 40 μg/ml, Doce 10 μg/ml, Carbo 20 μg/ml, Dacarb 12 μg/ml
# Protocol: as §1, §2, §3, §4, §5, §6, §7, §8
# Blood samples from a patient with stage II synovial sarcoma (suspected spindle cell tumour) were received and tested using a 6 drug panel.
# Chemotherapeutic agents were tested as in Table 3.
# [5] = test system: Circulating Tumour Cells (CTCs) from a patient with head and neck cancer (squamous cell carcinoma); experiment: Drug response score assay on CTCs from blood, Example 6
# Protocol: as §1, §2, §3, §4, §5, §6, §7, §8
# Blood samples from a patient with head and neck cancer (squamous cell carcinoma) were received on 11 Mar. 2022 and tested using a 7 drug panel.
Compound,"Drug response score, conc. 1 [1]","Drug response score, conc. 2 [1]","Drug response score, conc. 3 [1]","Drug response score, conc. 4 [1]",Drug sensitivity as calculated by the assay (interpretation of Drug Response Scores) ([1]; renal cancer CTCs),"Drug response score, conc. 1 [3]","Drug response score, conc. 2 [3]","Drug response score, conc. 3 [3]","Drug response score, conc. 4 [3]",Drug sensitivity as calculated by the assay (interpretation of Drug Response Scores) [3],"Drug response score, conc. 1 [4]","Drug response score, conc. 2 [4]","Drug response score, conc. 3 [4]","Drug response score, conc. 4 [4]",further results
CC[C@@]1(O)C(=O)OCc2c1cc1n(c2=O)Cc2cc3c(CN(C)C)c(O)ccc3nc2-1 [Topotecan],0.1847,−0.0648,−0.0964,−0.1707,Sensitive (S++),–,–,–,–,–,–,–,–,–,effectiveness on Circulating Tumour Cells under laboratory conditions ([1]; renal cancer CTCs): Sensitive S++
Cn1cnc2c(F)c(Nc3ccc(Br)cc3F)c(C(=O)NOCCO)cc21 [Binimetinib],–,–,–,–,–,–,–,–,–,–,–,–,–,–,"Drug response score, conc. 1 ([2]; conc. 1: Cyclo 2.5 μg/ml, Vinc 10 ng/ml, Etop 1 μg/ml, Bini 100 ng/ml, Doxo 10 ng/ml, CTCs, t96h): 0.93; Drug response score, conc. 2 ([2]; conc. 2: Cyclo 10 μg/ml, Vinc 20 ng/ml, Etop 4 μg/ml, Bini 200 ng/ml, Doxo 30 ng/ml, CTCs, t96h): 1.18; Drug response score, conc. 3 ([2]; conc. 3: Cyclo 40 μg/ml, Vinc 40 ng/ml, Etop 20 μg/ml, Bini 400 ng/ml, Doxo 90 ng/ml, CTCs, t96h): 1.19; Drug response score, conc. 4 ([2]; conc. 4: Cyclo 160 μg/ml, Vinc 80 ng/ml, Etop 100 μg/ml, Bini 800 ng/ml, Doxo 270 ng/ml, CTCs, t96h): 1.06; effectiveness on Circulating Tumour Cells (CTCs) under laboratory conditions ([2]; sex cord stromal / ovarian tumour CTCs): not effective; Drug sensitivity as calculated by the assay (interpretation of Drug Response Scores) ([2]; sex cord stromal / ovarian tumour CTCs, Table 14): Resistant"
N.N.O=C([O-])C1(C(=O)[O-])CCC1.[Pt+2] [Carboplatin],–,–,–,–,–,6.6672,−0.0506,−0.8131,−0.1322,Sensitive (S++),1.4015,0.6497,0.4151,0.4317,"Drug sensitivity as calculated by the assay (interpretation of Drug Response Scores) ([4]; synovial sarcoma CTCs, Table 5): Sensitive (S+)"
CCCCCOC(=O)Nc1nc(=O)n([C@@H]2O[C@H](C)[C@@H](O)[C@H]2O)cc1F [Capecitabine],–,–,–,–,–,–,–,–,–,–,–,–,–,–,"Drug response score, conc. 1 ([5]; conc. 1: Ifos 0.125 μg/ml, Gemcit 2 μg/ml, Doxo 10 ng/ml, Etop 1 μg/ml, Metho 0.5 μg/ml, Capecit 200 μg/ml, Vinor 20 μg/ml, CTCs, t96h): 0.7820; Drug response score, conc. 2 ([5]; conc. 2: Ifos 0.25 μg/ml, Gemcit 10 μg/ml, Doxo 30 ng/ml, Etop 4 μg/ml, Metho 1 μg/ml, Capecit 300 μg/ml, Vinor 40 μg/ml, CTCs, t96h): 0.9244; Drug response score, conc. 3 ([5]; conc. 3: Ifos 5 μg/ml, Gemcit 20 μg/ml, Doxo 90 ng/ml, Etop 20 μg/ml, Metho 2 μg/ml, Capecit 400 μg/ml, Vinor 80 μg/ml, CTCs, t96h): 0.6113; Drug response score, conc. 4 ([5]; conc. 4: Ifos 10 μg/ml, Gemcit 40 μg/ml, Doxo 270 ng/ml, Etop 100 μg/ml, Metho 4 μg/ml, Capecit 600 μg/ml, Vinor 200 μg/ml, CTCs, t96h): 1.0037; effectiveness on Circulating Tumour Cells under laboratory conditions ([5]; head and neck cancer CTCs): not effective; Drug sensitivity as calculated by the assay (interpretation of Drug Response Scores) ([5]; head and neck cancer CTCs, Table 20): Resistant"
C=C1C[C@@H]2CC[C@@]34C[C@H]5O[C@H]6[C@@H](O3)[C@H]3O[C@H](CC[C@@H]3O[C@H]6[C@H]5O4)CC(=O)C[C@@H]3[C@@H](OC)[C@@H](C[C@H](O)CN)O[C@H]3C[C@H]3O[C@@H](CC[C@@H]1O2)C[C@@H](C)C3=C [Eribuline],0.4482,0.0692,−0.1453,−0.0193,Sensitive (S+),4.4627,−0.1620,−0.0329,−0.4785,Sensitive (S++),–,–,–,–,–
CN(C)/N=N/c1[nH]cnc1C(N)=O [Dacarbazine],–,–,–,–,–,–,–,–,–,–,2.1563,0.0887,0.1691,0.5700,–
